According to ChEMBL document CHEMBL4725279, “Design and synthesis of peptide-based chimeric molecules to induce degradation of the estrogen and androgen receptors” (Bioorg Med Chem, 2020):

Columns and labels:
Assay type in all cases: cell-based
[1] = molecular target: T1, IAP/Androgen receptor (Homo sapiens) (UniProt P10275+P98170+Q13490); assay: SNIPER activity at IAP/AR in human MCF7 cells assessed as induction of AR protein degradation by measuring AR protein level at 20 uM incubated for 8 hrs in presence of proteasome inhibitor, MG132 by western blot analysis relative to lamin B
[2] = molecular target: T2, Baculoviral IAP repeat-containing protein 2/E3 ubiquitin-protein ligase XIAP/Aryl hydrocarbon receptor (Homo sapiens, UniProt P35869+P98170+Q13490); assay: SNIPER activity at IAP/AhR in human MCF7 cells assessed as induction of AhR protein degradation by measuring AhR protein level at 20 uM incubated for 8 hrs in presence of ubiquitin activating inhibitor MLN7243 by western blot analysis relative to lamin B; settings: mcf7, 8 h
[3] = molecular target: T3, IAP-Estrogen receptor (Homo sapiens) (UniProt P03372+P98170+Q13490); assay: SNIPER activity at IAP/ERalpha in human MCF7 cells assessed as induction of ERalpha protein degradation by measuring ERalpha protein level at 20 uM incubated for 8 hrs in presence of ubiquitin activating inhibitor MLN7243 by western blot analysis relative to lamin B
[4] = molecular target: T2, Baculoviral IAP repeat-containing protein 2/E3 ubiquitin-protein ligase XIAP/Aryl hydrocarbon receptor; assay: SNIPER activity at IAP/AhR in human MCF7 cells assessed as induction of AhR protein degradation by measuring AhR protein level at 20 uM incubated for 8 hrs in presence of proteasome inhibitor, MG132 by western blot analysis relative to lamin B; settings: mcf7, 8 h
[5] = molecular target: T1, IAP/Androgen receptor (Homo sapiens); assay: SNIPER activity at IAP/AR in XIAP siRNA-transfected human MCF7 cells assessed as induction of AR protein degradation by measuring AR protein level at 20 uM incubated for 8 hrs by western blot analysis relative to lamin B
[6] = molecular target: T1, IAP/Androgen receptor (Homo sapiens); assay: SNIPER activity at IAP/AR in human MCF7 cells assessed as induction of AR protein degradation by measuring AR protein level at 10 uM incubated for 24 hrs by western blot analysis relative to lamin B
[7] = molecular target: T1, IAP/Androgen receptor (Homo sapiens); assay: SNIPER activity at IAP/AR in human MCF7 cells assessed as induction of AR protein degradation by measuring AR protein level at 20 uM incubated for 8 hrs by western blot analysis relative to lamin B
[8] = molecular target: T3, IAP-Estrogen receptor (Homo sapiens); assay: SNIPER activity at IAP/ERalpha in human MCF7 cells assessed as induction of ERalpha protein degradation by measuring ERalpha protein level at 10 uM incubated for 8 hrs by western blot analysis relative to lamin B
[9] = molecular target: T2, Baculoviral IAP repeat-containing protein 2/E3 ubiquitin-protein ligase XIAP/Aryl hydrocarbon receptor; assay: SNIPER activity at IAP/AhR in human MCF7 cells assessed as induction of AhR protein degradation by measuring AhR protein level at 10 uM incubated for 24 hrs by western blot analysis relative to lamin B; settings: mcf7, 24 h
[10] = molecular target: T3, IAP-Estrogen receptor (Homo sapiens); assay: SNIPER activity at IAP/ERalpha in human MCF7 cells assessed as induction of ERalpha protein degradation by measuring ERalpha protein level at 20 uM incubated for 8 hrs by western blot analysis relative to lamin B
[11] = molecular target: T2, Baculoviral IAP repeat-containing protein 2/E3 ubiquitin-protein ligase XIAP/Aryl hydrocarbon receptor; assay: SNIPER activity at IAP/AhR in human MCF7 cells assessed as induction of AhR protein degradation by measuring AhR protein level at 10 uM incubated for 8 hrs by western blot analysis relative to lamin B; settings: mcf7, 8 h
[12] = molecular target: T1, IAP/Androgen receptor (Homo sapiens); assay: SNIPER activity at IAP/AR in human MCF7 cells assessed as induction of AR protein degradation by measuring AR protein level at 10 uM incubated for 8 hrs by western blot analysis relative to lamin B
[13] = molecular target: T3, IAP-Estrogen receptor (Homo sapiens); assay: SNIPER activity at IAP/ERalpha in human MCF7 cells assessed as induction of ERalpha protein degradation by measuring ERalpha protein level at 20 uM incubated for 24 hrs by western blot analysis relative to lamin B
[14] = molecular target: T2, Baculoviral IAP repeat-containing protein 2/E3 ubiquitin-protein ligase XIAP/Aryl hydrocarbon receptor; assay: SNIPER activity at IAP/AhR in human MCF7 cells assessed as induction of AhR protein degradation by measuring AhR protein level at 20 uM incubated for 8 hrs by western blot analysis relative to lamin B; settings: mcf7, 8 h
[15] = molecular target: T2, Baculoviral IAP repeat-containing protein 2/E3 ubiquitin-protein ligase XIAP/Aryl hydrocarbon receptor; assay: SNIPER activity at IAP/AhR in human MCF7 cells assessed as induction of AhR protein degradation by measuring AhR protein level at 20 uM incubated for 24 hrs by western blot analysis relative to lamin B; settings: mcf7, 24 h
[16] = molecular target: T3, IAP-Estrogen receptor (Homo sapiens); assay: SNIPER activity at IAP/ERalpha in human MCF7 cells assessed as induction of ERalpha protein degradation by measuring ERalpha protein level at 5 uM incubated for 8 hrs by western blot analysis relative to lamin B
[17] = molecular target: T1, IAP/Androgen receptor (Homo sapiens); assay: SNIPER activity at IAP/AR in cIAP1 siRNA-transfected human MCF7 cells assessed as induction of AR protein degradation by measuring AR protein level at 20 uM incubated for 8 hrs by western blot analysis relative to lamin B
[18] = molecular target: T2, Baculoviral IAP repeat-containing protein 2/E3 ubiquitin-protein ligase XIAP/Aryl hydrocarbon receptor; assay: SNIPER activity at IAP/AhR in human MCF7 cells assessed as induction of AhR protein degradation by measuring AhR protein level at 5 uM incubated for 24 hrs by western blot analysis relative to lamin B; settings: mcf7, 24 h
[19] = molecular target: T1, IAP/Androgen receptor (Homo sapiens); assay: SNIPER activity at IAP/AR in human MCF7 cells assessed as induction of AR protein degradation by measuring AR protein level at 20 uM incubated for 8 hrs in presence of ubiquitin activating inhibitor MLN7243 by western blot analysis relative to lamin B
[20] = molecular target: T1, IAP/Androgen receptor (Homo sapiens); assay: SNIPER activity at IAP/AR in human MCF7 cells assessed as induction of AR protein degradation incubated for 8 to 24 hrs by western blot analysis; settings: time hrs 8-24
[21] = molecular target: T3, IAP-Estrogen receptor (Homo sapiens); assay: SNIPER activity at IAP/ERalpha in XIAP siRNA-transfected human MCF7 cells assessed as induction of ERalpha protein degradation by measuring ERalpha protein level at 20 uM incubated for 8 hrs by western blot analysis relative to lamin B
[22] = molecular target: T3, IAP-Estrogen receptor (Homo sapiens); assay: SNIPER activity at IAP/ERalpha in human MCF7 cells assessed as induction of ERalpha protein degradation by measuring ERalpha protein level at 10 uM incubated for 24 hrs by western blot analysis relative to lamin B
[23] = molecular target: T1, IAP/Androgen receptor (Homo sapiens); assay: SNIPER activity at IAP/AR in human MCF7 cells assessed as induction of AR protein degradation by measuring AR protein level at 5 uM incubated for 8 hrs by western blot analysis relative to lamin B
[24] = molecular target: T1, IAP/Androgen receptor (Homo sapiens); assay: SNIPER activity at IAP/AR in XIAP/cIAP1 siRNA-transfected human MCF7 cells assessed as induction of AR protein degradation by measuring AR protein level at 20 uM incubated for 8 hrs by western blot analysis relative to lamin B
[25] = molecular target: T3, IAP-Estrogen receptor (Homo sapiens); assay: SNIPER activity at IAP/ERalpha in human MCF7 cells assessed as induction of ERalpha protein degradation by measuring ERalpha protein level at 20 uM incubated for 8 hrs in presence of proteasome inhibitor, MG132 by western blot analysis relative to lamin B
[26] = molecular target: T3, IAP-Estrogen receptor (Homo sapiens); assay: SNIPER activity at IAP/ERalpha in XIAP/cIAP1 siRNA-transfected human MCF7 cells assessed as induction of ERalpha protein degradation by measuring ERalpha protein level at 20 uM incubated for 8 hrs by western blot analysis relative to lamin B
[27] = molecular target: T3, IAP-Estrogen receptor (Homo sapiens); assay: SNIPER activity at IAP/ERalpha in cIAP1 siRNA-transfected human MCF7 cells assessed as induction of ERalpha protein degradation by measuring ERalpha protein level at 20 uM incubated for 8 hrs by western blot analysis relative to lamin B
[28] = molecular target: T1, IAP/Androgen receptor (Homo sapiens); assay: SNIPER activity at IAP/AR in human MCF7 cells assessed as induction of AR protein degradation by measuring AR protein level at 5 uM incubated for 24 hrs by western blot analysis relative to lamin B
[29] = molecular target: T2, Baculoviral IAP repeat-containing protein 2/E3 ubiquitin-protein ligase XIAP/Aryl hydrocarbon receptor; assay: SNIPER activity at IAP/AhR in human MCF7 cells assessed as induction of AhR protein degradation by measuring AhR protein level at 5 uM incubated for 8 hrs by western blot analysis relative to lamin B; settings: mcf7, 8 h
[30] = molecular target: T3, IAP-Estrogen receptor (Homo sapiens); assay: SNIPER activity at IAP/ERalpha in human MCF7 cells assessed as induction of ERalpha protein degradation incubated for 8 to 24 hrs by western blot analysis; settings: time hrs 8-24
[31] = molecular target: T1, IAP/Androgen receptor (Homo sapiens); assay: SNIPER activity at IAP/AR in human MCF7 cells assessed as induction of AR protein degradation by measuring AR protein level at 20 uM incubated for 24 hrs by western blot analysis relative to lamin B
[32] = molecular target: T3, IAP-Estrogen receptor (Homo sapiens); assay: SNIPER activity at IAP/ERalpha in human MCF7 cells assessed as induction of ERalpha protein degradation by measuring ERalpha protein level at 5 uM incubated for 24 hrs by western blot analysis relative to lamin B

T2 sequence (P35869 whole entry): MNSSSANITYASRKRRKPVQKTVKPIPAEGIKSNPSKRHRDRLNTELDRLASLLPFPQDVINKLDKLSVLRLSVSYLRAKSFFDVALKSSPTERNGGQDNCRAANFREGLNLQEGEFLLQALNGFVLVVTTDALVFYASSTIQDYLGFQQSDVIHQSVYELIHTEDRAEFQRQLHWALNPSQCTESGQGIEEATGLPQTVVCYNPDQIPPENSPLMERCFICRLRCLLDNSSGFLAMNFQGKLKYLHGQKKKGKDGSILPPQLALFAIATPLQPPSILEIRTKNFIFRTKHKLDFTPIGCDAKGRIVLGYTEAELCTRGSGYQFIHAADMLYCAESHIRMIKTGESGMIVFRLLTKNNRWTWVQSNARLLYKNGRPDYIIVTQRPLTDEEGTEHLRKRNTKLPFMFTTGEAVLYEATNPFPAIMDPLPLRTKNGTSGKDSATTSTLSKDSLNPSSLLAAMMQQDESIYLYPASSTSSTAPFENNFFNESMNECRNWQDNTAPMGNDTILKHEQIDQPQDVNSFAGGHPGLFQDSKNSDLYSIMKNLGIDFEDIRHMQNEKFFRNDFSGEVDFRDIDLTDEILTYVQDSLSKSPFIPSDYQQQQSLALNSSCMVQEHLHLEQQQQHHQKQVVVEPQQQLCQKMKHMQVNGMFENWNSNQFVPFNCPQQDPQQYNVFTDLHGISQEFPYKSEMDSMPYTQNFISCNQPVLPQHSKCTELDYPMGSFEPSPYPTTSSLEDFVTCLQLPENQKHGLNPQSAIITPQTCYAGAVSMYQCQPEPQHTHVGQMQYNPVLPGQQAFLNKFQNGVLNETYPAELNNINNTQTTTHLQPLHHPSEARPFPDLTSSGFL
T2 sequence (P98170 whole entry): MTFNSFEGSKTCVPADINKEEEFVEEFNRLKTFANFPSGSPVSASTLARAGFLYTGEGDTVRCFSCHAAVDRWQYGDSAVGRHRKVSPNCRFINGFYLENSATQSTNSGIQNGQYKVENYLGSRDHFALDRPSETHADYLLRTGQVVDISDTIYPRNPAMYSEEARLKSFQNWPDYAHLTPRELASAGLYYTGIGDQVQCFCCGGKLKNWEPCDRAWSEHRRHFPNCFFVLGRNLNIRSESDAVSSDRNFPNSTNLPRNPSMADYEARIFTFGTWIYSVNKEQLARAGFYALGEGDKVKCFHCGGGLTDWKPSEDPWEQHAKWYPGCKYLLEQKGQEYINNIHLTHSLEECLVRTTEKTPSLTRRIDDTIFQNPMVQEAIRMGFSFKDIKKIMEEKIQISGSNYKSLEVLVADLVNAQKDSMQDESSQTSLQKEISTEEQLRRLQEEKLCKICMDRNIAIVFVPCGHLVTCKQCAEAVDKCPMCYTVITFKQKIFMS
T2 sequence (Q13490 whole entry): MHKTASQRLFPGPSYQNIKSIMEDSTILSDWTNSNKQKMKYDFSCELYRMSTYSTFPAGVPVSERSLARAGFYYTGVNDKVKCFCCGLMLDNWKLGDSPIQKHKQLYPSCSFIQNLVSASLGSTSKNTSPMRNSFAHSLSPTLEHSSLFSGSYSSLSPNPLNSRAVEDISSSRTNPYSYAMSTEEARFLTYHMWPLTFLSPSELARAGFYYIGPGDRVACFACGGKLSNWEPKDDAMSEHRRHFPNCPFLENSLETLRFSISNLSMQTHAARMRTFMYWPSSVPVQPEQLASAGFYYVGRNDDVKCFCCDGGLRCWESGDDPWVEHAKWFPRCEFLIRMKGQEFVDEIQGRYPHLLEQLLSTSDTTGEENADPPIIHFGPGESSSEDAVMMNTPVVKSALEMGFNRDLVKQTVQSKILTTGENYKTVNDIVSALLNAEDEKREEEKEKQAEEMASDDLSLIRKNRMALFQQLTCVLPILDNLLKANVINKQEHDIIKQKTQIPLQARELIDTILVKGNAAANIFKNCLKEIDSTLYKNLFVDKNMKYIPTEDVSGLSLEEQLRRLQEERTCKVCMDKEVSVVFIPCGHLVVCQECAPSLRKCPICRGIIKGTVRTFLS
T3 sequence (P03372 whole entry, looked up): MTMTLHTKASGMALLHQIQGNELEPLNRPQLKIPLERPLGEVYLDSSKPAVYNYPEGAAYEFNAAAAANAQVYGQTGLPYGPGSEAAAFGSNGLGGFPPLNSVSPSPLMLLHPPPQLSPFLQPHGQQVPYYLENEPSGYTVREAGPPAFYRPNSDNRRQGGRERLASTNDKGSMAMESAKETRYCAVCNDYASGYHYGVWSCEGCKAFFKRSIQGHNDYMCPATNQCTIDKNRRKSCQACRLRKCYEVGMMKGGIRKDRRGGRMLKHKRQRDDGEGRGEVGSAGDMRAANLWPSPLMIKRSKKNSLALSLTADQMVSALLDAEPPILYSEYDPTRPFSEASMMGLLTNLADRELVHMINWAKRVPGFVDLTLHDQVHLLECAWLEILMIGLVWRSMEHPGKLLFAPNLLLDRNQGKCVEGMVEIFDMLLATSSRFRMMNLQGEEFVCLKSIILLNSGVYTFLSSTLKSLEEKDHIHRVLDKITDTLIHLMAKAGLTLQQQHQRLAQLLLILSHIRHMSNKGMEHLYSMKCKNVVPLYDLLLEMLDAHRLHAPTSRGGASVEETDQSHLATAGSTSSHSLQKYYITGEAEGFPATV
T3 sequence (P98170 whole entry, looked up): as the sequence (P98170 whole entry) above
T3 sequence (Q13490 whole entry, looked up): as the sequence (Q13490 whole entry) above

| Activity [1] | Activity [2] | Activity [3] | Activity [4] | Activity [6] | Activity [7] | Activity [8] | Activity [9] | Activity [10] | Activity [11] | Activity [12] | Activity [13] | Activity [14] | Activity [15] | Activity [16] | Activity [18] | Activity [19] | Activity [20] | Activity [22] | Activity [23] | Structure (SMILES) | further results |
| --- | --- | --- | --- | --- | --- | --- | --- | --- | --- | --- | --- | --- | --- | --- | --- | --- | --- | --- | --- | --- | --- |
| 95% | 110% | 122% | 90% | 137% | 36% | 68% | 165% | 46% | 128% | 63% | 35% | 80% | 103% | 84% | 100% | 117% | Dose-dependent effect | 76% | 81% | CC[C@H](C)[C@@H]1NC(=O)[C@H](NC(=O)[C@@H](N)CCCCNC(=O)COCCOCCNC(=O)COCCOCCOc2cccc(C(=O)c3csc([C@@H]4CCCN4C(=O)[C@@H](NC(=O)[C@H](C)NC)C4CCCCC4)n3)c2)CSSC[C@@H](C(=O)N[C@@H](CCCNC(=N)N)C(=O)N[C@@H](CC(C)(C)C)C(=O)N[C@@H](CC(C)C)C(=O)N[C@@H](CCC(N)=O)C(=O)NCC(=O)NCC(=O)NCC(=O)N[C@@H](CCCNC(=N)N)C(=O)N[C@@H](CCCNC(=N)N)C(=O)N[C@@H](CCCNC(=N)N)C(=O)N[C@@H](CCCNC(=N)N)C(=O)N[C@@H](CCCNC(=N)N)C(=O)N[C@@H](CCCNC(=N)N)C(=O)N[C@@H](CCCNC(=N)N)C(N)=O)NC(=O)[C@H](CC(C)C)NC1=O | Activity [5]: 57%; Activity [17]: 78%; Activity [21]: 62%; Activity [24]: 59%; Activity [25]: 94%; Activity [26]: 55%; Activity [27]: 50%; Activity [28]: 99%; Activity [29]: 111%; Activity [30]: Dose-dependent effect; Activity [31]: 59%; Activity [32]: 81% |
| 90% | 107% | 119% | 91% | 152% | 35% | 66% | 189% | 48% | 129% | 56% | 34% | 82% | 125% | 84% | 97% | 110% | Dose-dependent effect | 75% | 80% | CC[C@H](C)[C@@H]1NC(=O)[C@H](NC(=O)[C@@H](N)CCCCNC(=O)COCCOCCNC(=O)COCCOCCNC(=O)[C@@H](NC(=O)[C@@H]2CCCN2C(=O)[C@@H](NC(=O)[C@H](C)NC)C2CCCCC2)C(c2ccccc2)c2ccccc2)CSSC[C@@H](C(=O)N[C@@H](CCCNC(=N)N)C(=O)N[C@@H](CC(C)(C)C)C(=O)N[C@@H](CC(C)C)C(=O)N[C@@H](CCC(N)=O)C(=O)NCC(=O)NCC(=O)NCC(=O)N[C@@H](CCCNC(=N)N)C(=O)N[C@@H](CCCNC(=N)N)C(=O)N[C@@H](CCCNC(=N)N)C(=O)N[C@@H](CCCNC(=N)N)C(=O)N[C@@H](CCCNC(=N)N)C(=O)N[C@@H](CCCNC(=N)N)C(=O)N[C@@H](CCCNC(=N)N)C(N)=O)NC(=O)[C@H](CC(C)C)NC1=O | Activity [25]: 88%; Activity [28]: 97%; Activity [29]: 119%; Activity [30]: Dose-dependent effect; Activity [31]: 57%; Activity [32]: 79% |
